We go through 9 compounds from patent US20180333386A1, “AGENTS USEFUL FOR TREATING FRIEDREICH'S ATAXIA AND OTHER NEURODEGENERATIVE DISEASES” (IXCHEL PHARMA LLC, priority 2011, published 2018).

Data set [1] relates to frataxin deficient 50B11 dorsal root ganglion cell line. The data set is described as follows: Thiol-antioxidant inhibitors in siRNA-mediated frataxin deficient 50B11 dorsal root ganglion cell line. The conditions noted are these: for death of neurons with frataxin deficiency on treatment: siRNA frataxin knockdown vs. control. The data set is classed as cell-based. How it is done: Therefore, 11 inhibitors of these antioxidants were tested in siRNA-mediated frataxin deficient 50B11 dorsal root ganglion cell line. […] The major mitochondrial antioxidant system is thioredoxin reductase. Auranofin is a specific inhibitor of thioredoxin reductase, and diamide is a known oxidizer of thioredoxin. Thus the diamide screen identifies compounds that rescue from thioredoxin reductase deficiency, which include inducers of Nrf2, which are known to induce thioredoxin reductase and other antioxidant functions.

Data set [2] has as its system human FRDA patient fibroblasts. The data set can be described thus: Diamide screening assay: protection of FRDA patient fibroblasts from diamide toxicity (Calcein-AM viability). The data set is classed as cell-based. Conditions: for protection from diamide toxicity: 200 micromolar diamide, result in words; for EC50: Homo sapiens, Fibroblast; for EC50 / maximum effect of protection from diamide toxicity, fold increase from baseline: n=3; for maximum effect of protection from diamide toxicity, fold increase from baseline: dose-response. The source says: The cell-based assay was further optimized for high-throughput screening in 96-well plates, with an excellent screening window and low variability, represented by a Z′ value of 0.75 (n=5) and was used to screen a library of 1600 drugs that have been approved for clinical use in the USA. Drugs that rescued at DMSO mean+two standard deviations were repeated an additional two times. Compounds that rescued in >2 screens advanced to secondary screening, which included replication of protective effect in a concentration-dependent manner, 0.01-10 μM. […] Additional mechanisms are listed below.
Diamide Screening Method Format: On the day one of the assay, cell density was determined using the Vi-Cell counter, and a volume corresponding to 5,500 human FRDA patient fibroblasts per well was aliquoted into 96-well black/clear poly-d-lysine coated plates in growth media, and the cells were allowed 3 hours to attach. Drugs (10 mM stock in DMSO) are dispensed into wells after an intermediate dilution in PBS, giving a final DMSO concentration of 0.1% using an electronic multichannel pipette. Test compounds were tested at 10 micromolar. There were 8 negative control (0.1% DMSO only) and 8 positive control (300 micromolar DTT) wells on each plate. Plates were incubated at 37 C and 5% CO2 for twenty-four hours after which 200 micromolar diamide was added to all wells. Plates were incubated for an additional 16 hours as before. Cells were washed with PBS and incubated with Calcein-AM cell viability dye (Invitrogen, Carlsbad, Calif., USA) and fluorescence was read with a PolarStar Omega plate reader (BMG LabTech, Cary, N.C.). Hits were scored as Basal Median+3×MAD.

For data set [3], the system named is frataxin (FXN) protein in HeLa cells. The data set is described as follows: Frataxin protein level in HeLa cells by Western blot. The data set is classed as cell-based, human. How it is done: (§1) To test if one mechanism of protection from diamide toxicity for dyclonine was an increase in frataxin protein levels, HeLa cells or FRDA patient lymphoblasts were cultured for 48 hr in the presence of 10 micromolar dyclonine in 6 well dishes. Cells were harvested and whole cell lysates were analyzed by Western blot (protocol below). Representative blots are shown for HeLa cells (FIG. 5A) and FRDA and healthy siblings lymphoblasts (FIG. 5B), as well as densitometry normalization to actin. Dyclonine induction of FXN levels was consistent over multiple experiments (FIG. 5C).
(§2) Western Blot Protocol: Forty micrograms of whole-cell lysates were analyzed on […] Bis-Tris gels (Invitrogen, Carsbad, Calif., USA). Electrophoresis was carried out according to the manufacturer's instruction. After electrophoresis, the proteins were transferred to nitrocellulose membranes by iBlot device (Invitrogen). The membranes were blocked with blocking buffer (Odyssey, Lincoln, Nebr., USA) for 1 h and incubated overnight with primary antibodies in blocking buffer: anti-frataxin anti-β-actin, tubulin, (Sigma). Afterwards, the membranes were incubated with a corresponding pair of IRDye 680CW- and IRDye 800CW-coupled (Odyssey) secondary antibodies for 1 h. The membranes were washed four times with 1× Tris-buffered saline with Tween 20 and proteins were visualized with a LI-COR infrared imager (Odyssey). The pictures were processed by Odyssey version 3.0 infrared imaging software.
(§3) An additional hit in the diamide screening assay in FRDA fibroblasts was dimethyl fumarate (protocol above). […] To test if the mechanism of protection from diamide toxicity was an increase in frataxin protein levels, HeLa cells or FRDA patient lymphoblasts were cultured for 48 hr in the presence of 0.03-30 micromolar dimethyl fumarate in 12-well dishes. Cells were harvested and whole cell lysates were analyzed by Western blot (protocol above). Representative blots are shown for HeLa cells (FIG. 9A) and FRDA lymphoblasts (FIG. 9B). FXN was induced 1.37 fold ±0.1 (n=3) in HeLa cells, and 2.4 fold ±0.9 (n=3) in FRDA lymphoblasts.

In data set [4] the test system is frataxin (FXN) protein in FRDA patient lymphoblasts. The data set is described as follows: Frataxin protein level in FRDA patient lymphoblasts by Western blot. Conditions: 48 hr. The data set is classed as cell-based, human. The method, then: as §1, §2, §3
An additional hit in the diamide screening assay (protocol above) in FRDA fibroblasts was the phenathiazine, tolonium cl. […] To test if the mechanism of protection from diamide toxicity was an increase in frataxin protein levels, the phenothiazines tolonium cl and methylene blue were tested. […] Cells were harvested and whole cell lysates were analyzed by Western blot (protocol above). […]
To test if Methylene blue also potentiates DMF-mediated FXN induction, FRDA patient lymphoblasts were cultured for 48 hr in the presence of 3 micromolar dimethyl fumarate and 3 micromolar methylene blue in 6 well dishes. Cells were harvested and whole cell lysates were analyzed by Western blot (protocol above).

For data set [5], the system named is frataxin (FXN) protein in YG8 FRDA transgenic mouse. The data set is described as follows: Frataxin level in YG8 FRDA transgenic mouse model (Western blot of cerebellum and splenocytes). Format: in vivo. Conditions: for FXN expression in vivo, FXN/actin densitometry: hemizygous YG8 mice; for frataxin in brains and other tissues of the animal model of FRDA: result in words. How it is done:
Dyclonine increases frataxin levels in vivo. To determine ability of dyclonine to reverse the in vivo FXN protein defect, the YG8 FRDA transgenic mouse model was chosen. Hemizygous animals with the least frataxin were separated into vehicle and treatment groups. Homozygous mice (two copies of FXN gene) were used as positive control. Animals were dosed daily with 1 mg/kg dyclonine via intraperitoneal injection for 6 days. At the end of the study, the animals were sacrificed, and processed for biochemical analysis, i.e. Western blots of treated and vehicle groups of Cerebellum and splenocyte frataxin level. Western blot of cerebellum and splenocytes is shown (FIG. 6A) and densitometry of FXN/actin normalization (FIG. 6B) showing dyclonine induces FXN expression in vivo by 1.5-2 fold.
Of these 20, 8 were tested in the YG8 transgenic mouse model. […] Animals were dosed daily with 1-10 mg/kg drug via intraperitoneal injection for 6 days. At the end of the study, the animals were sacrificed, and processed for biochemical analysis, i.e. Western blots (protocol above) of treated and vehicle groups of Cerebellum and splenocyte frataxin level. Western blot of cerebellum is shown (FIG. 7B) and densitometry of FXN/actin normalization (FIG. 7A) showing dimethyl fumarate, dyclonine, methylene blue, and nifursol induce FXN expression in vivo by 1.5-2 fold.
To determine ability of dimethyl fumarate to reverse the in vivo FXN protein defect, the YG8 FRDA transgenic mouse model was chosen. Hemizygous animals with largest FXN defect, were separated into vehicle and treatment groups. Homozygous mice were used as positive control. Animals were dosed daily with 5 mg/kg dimethyl fumarate via intraperitoneal injection for 6 days. A non-specific HDAC inhibitor was used as a positive control, dosed at 1 mg/kg. At the end of the study, the animals were sacrificed, and processed for biochemical analysis, i.e. Western Blots of treated and vehicle groups of cerebellum and splenocyte frataxin level.

Data set [6] has as its system Nrf2 target antioxidant response element (ARE). The data set can be described thus: Nrf2/ARE luciferase assay in reporter HeLa cell line. The conditions noted are these: for Nrf2/ARE activity (ARE-luciferase): 24 hours, threshold mean+2× Standard deviation of the vehicle control. The data set is classed as cell-based, human. How it is done: To evaluate the mechanism of FXN induction of the […] that protected from diamide, the potency of each to activate the Nrf2 target antioxidant response element (ARE) was evaluated. 10 of the 20 frataxin inducers interacted with the Nrf2 pathway in a significant way, either positively or negatively. The dashed line=mean+2×SD. […] Dyclonine's induction of ARE/Nrf2 activity was dose-dependent (FIG. 13B).
The Nrf2 reporter HeLa cell line was generated using the Lenti Antioxidant Response Reporter (Qiagen, Valencia, Calif.) system, which expressed firefly luciferase gene and the ARE transcriptional response element. 15,000 cells/well were plated in 90 ul in phenol-free DMEM media in white wall/bottom 96 well plates. Drugs were added and plates incubated at 37 C for 24 hours. 75 microliters of Bright Glo Luciferase Assay Reagent (Promega, Madison, Wis.) with combined lysis solution was added to all wells and allowed to incubate for 5 minutes at room temperature. Luminescence was then read with a PolarStar Omega plate reader (BMG LabTech, Cary, N.C.).

Data set [7] concerns frataxin (FXN) protein in FRDA lymphoblasts. The data set can be described thus: In-cell Western of FXN in FRDA lymphoblasts (synergy of FXN-inducing drugs). The data set is classed as cell-based, human. The conditions noted are these: 5 micromolar dyclonine with dose-response of dimethyl fumarate, 48 hours. How it is done: To evaluate potential synergy of identified FXN-inducing drugs, a dose-response of dimethyl fumarate in the absence or presence of 5 micromolar dyclonine was determined in FRDA lymphoblasts incubated for 48 hours in 96 well plates. Whole cells were fixed and permeabilized and for analyzed using in-cell Western technique (protocol below).
In-Cell Western Blot Protocol: 50,000 cells/well were plated in black walled clear bottom 96-well poly-d-lysine coated plates. After drug treatment, media was removed by aspiration and cells were fixed by addition of 100 ul/well of 3.7% formaldehyde in PBS. After 30 minutes, fixing solution was removed and 100 ul/well of 0.1% TritonX100 in PBS was added to all wells. After 40 minutes, cells were blocked with 100 ul blocking buffer (Odyssey, Lincoln, Nebr., USA) for 1 h and incubated with primary antibodies in blocking buffer: anti-frataxin (Mitosciences, Eugene, Oreg.) anti-β-actin (Sigma) for one hour. Cells were washed three times with 1× Tris-buffered saline with Tween 20, and then incubated with 100 ul/well of IRDye 680CW- and IRDye 800CW-coupled (Odyssey) secondary antibodies for 1 h. The cells were washed three times with 1× Tris-buffered saline with Tween 20 and signal was visualized with a LI-COR infrared imager (Odyssey). The pictures were processed by Odyssey version 3.0 infrared imaging software.

“Also recorded” adds a separate entry of the source. Structures can show the parent of a compound that is named as a salt.

On to `O[C@@H](CS)[C@@H](O)CS` [DTT], for which the “reversal of sensitivity to diamide” value in data set [1] (frataxin deficient DRG cell line / Friedreich's patient fibroblasts) is “could be reversed”.
On to `CC(=O)OC[C@H]1O[C@@H]([S-])[C@H](OC(C)=O)[C@@H](OC(C)=O)[C@@H]1OC(C)=O.CCP(CC)CC.[Au+]` [auranofin], for which, in data set [1], the “death of neurons with frataxin deficiency on treatment” value is given as “died more rapidly”.
With `CN(C)C(=O)/N=N/C(=O)N(C)C` [diamide], the “death of neurons with frataxin deficiency on treatment” value in data set [1] was “died more rapidly”.
Turning to `COC(=O)/C=C/C(=O)OC` [dimethyl fumarate], in data set [2], the “protection from diamide toxicity” value was “neuroprotective; also recorded: dose-dependent”; the concentration for a half-maximal effect (EC50) is 1300 ± 800 nM; the “maximum effect of protection from diamide toxicity, fold increase from baseline” value is reported as 1.9±0.2 fold. In addition, the “FXN induction in HeLa cells” value in data set [3] (48 hr, 0.03-30 micromolar dimethyl fumarate, n=3) is recorded as 1.37 fold. For the same compound, the “significance of FXN induction by concentration” value in data set [3] (at 1, 10 and 30 micromolar dimethyl fumarate, 48 hr (FIG. 9C)) is listed as “Significant FXN induction”. The “FXN induction in FRDA lymphoblasts” value in data set [4] (0.03-30 micromolar dimethyl fumarate, n=3) is given as 2.4 fold. Besides, in data set [5] (5 mg/kg daily intraperitoneal for 6 days, cerebellum, p<0.05), the “FXN expression in vivo, FXN/actin densitometry” value is 1.5-2 fold. Moreover, the “frataxin in brains and other tissues of the animal model of FRDA” value (“frataxin in brains and other tissues” below) in data set [5] is “increased frataxin”. Further, the “Nrf2/ARE activity (ARE-luciferase)” value in data set [6] is recorded as “induced Nrf2/ARE activity”.
On to `CCCCOc1ccc(C(=O)CCN2CCCCC2)cc1` [dyclonine], for which the “protection from diamide toxicity” value in data set [2] is “protected FRDA cells from diamide induced oxidative stress; also recorded: dose dependent protection”. In addition, in data set [3] (48 hr, 10 micromolar dyclonine, result in words), the “frataxin expression in HeLa cells” value is listed as “Induces Frataxin Expression”. For the same compound, the “frataxin expression in FRDA lymphoblasts” value in data set [4] (10 micromolar dyclonine, result in words) is listed as “Induces Frataxin Expression”. Moreover, in data set [5] (1 mg/kg daily intraperitoneal for 6 days, cerebellum and splenocytes), the “FXN expression in vivo, FXN/actin densitometry” value is 1.5-2 fold. The “frataxin in brains and other tissues” value in data set [5] was “increased frataxin”. Further, the “potentiation of DMF FXN induction” value in data set [7] is “potentiated DMF FXN induction”. Moreover, in data set [6], the “Nrf2/ARE activity (ARE-luciferase)” value is “induced Nrf2/ARE activity”. In data set [6] (FIG. 13B), the “dose dependence of induction of ARE/Nrf2 activity” value is recorded as “dose-dependent”.
As to `CN(C)c1ccc2nc3ccc(=[N+](C)C)cc-3sc2c1` [methylene blue], the “protection from diamide toxicity” value in data set [2] is reported as “neuroprotective”. Besides, in data set [4] (3 micromolar methylene blue with 3 micromolar dimethyl fumarate, Western blot), the “potentiation of DMF-mediated FXN induction” value is reported as “potentiates DMF FXN induction”. Further, in data set [4] (10 nanomolar methylene blue, n=2), the “Fold FXN induction in FRDA lymphoblasts” value is on record as 1.7 fold. In addition, the “frataxin in brains and other tissues” value in data set [5] was “increased frataxin”.
With `O=C(N/N=C/c1ccc([N+](=O)[O-])o1)c1cc([N+](=O)[O-])cc([N+](=O)[O-])c1O` [nifursol], in data set [2], the “protection from diamide toxicity” value is reported as “neuroprotective”. The “frataxin in brains and other tissues” value in data set [5] is reported as “increased frataxin”.
Take `Cc1cc2nc3ccc(N(C)C)cc3[s+]c2cc1N` [tolonium cl]: in data set [2], the concentration giving a half-maximal response (EC50) is 100 ± 10 nM and the “maximum effect of protection from diamide toxicity, fold increase from baseline” value is 1.9±0.1 fold.
In the case of mepartricin, the “Nrf2/ARE activity (ARE-luciferase)” value in data set [6] is reported as “induced Nrf2/ARE activity”.
